We go through 2 compounds from paper PMC3180450, “Structural Insights into the Mechanism of Protein O-Fucosylation” (PLoS ONE, 2011).

Type in all cases: binding
Assay [1] concerns the target T1, CePOFUT1 (Caenorhabditis elegans, UniProt Q18014).
T1 construct: gene pfut-1; codon-optimized synthetic gene in pPICZalphaA with KEX2 cleavage signal, secreted from Pichia pastoris X-33; monomer
T1 sequence (Q18014 26-382): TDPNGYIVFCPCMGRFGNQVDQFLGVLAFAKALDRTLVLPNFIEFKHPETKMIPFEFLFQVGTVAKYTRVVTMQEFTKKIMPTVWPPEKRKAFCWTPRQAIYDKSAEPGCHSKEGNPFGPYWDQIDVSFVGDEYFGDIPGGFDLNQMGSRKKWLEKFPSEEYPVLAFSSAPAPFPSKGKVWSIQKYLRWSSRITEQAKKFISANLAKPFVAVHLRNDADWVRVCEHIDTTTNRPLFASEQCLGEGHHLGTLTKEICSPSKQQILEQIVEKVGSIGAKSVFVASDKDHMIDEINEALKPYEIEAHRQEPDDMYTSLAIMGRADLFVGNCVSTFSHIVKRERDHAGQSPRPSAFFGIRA
The experiment in a line: thermal shift assay (ANS fluorescence). The source says:
(§1) thermal shift assay (ANS fluorescence) on CePOFUT1

Assay [2] addresses T1, CePOFUT1. Briefly: isothermal titration calorimetry. As to conditions: read-out: K d (μM)GDP-fucose. The source says:
(§2) isothermal titration calorimetry on CePOFUT1

In assay [3] the target is T2, CePOFUT1 (Caenorhabditis elegans, UniProt Q18014, D309N).
T2 construct: gene pfut-1; codon-optimized synthetic gene in pPICZalphaA with KEX2 cleavage signal, secreted from Pichia pastoris X-33; monomer
T2 sequence (Q18014 26-382 D309N): T1 sequence (Q18014 26-382) with D284N
Briefly: thermal shift assay (ANS fluorescence). Conditions: read-out: ΔT m (°C)1 mM GDP.
From the text: as §1

For assay [4], the target named is T3, CePOFUT1 (Caenorhabditis elegans, UniProt Q18014, D242A).
T3 construct: gene pfut-1; codon-optimized synthetic gene in pPICZalphaA with KEX2 cleavage signal, secreted from Pichia pastoris X-33; monomer
T3 sequence (Q18014 26-382 D242A): T1 sequence (Q18014 26-382) with D217A
The experiment in a line: isothermal titration calorimetry.
From the text: as §2
For orientation: Isothermal titration calorimetry measures the heat released or taken up as one component is titrated into another.

Assay [5] deals with T4, CePOFUT1 (Caenorhabditis elegans, UniProt Q18014, D244A).
T4 construct: gene pfut-1; codon-optimized synthetic gene in pPICZalphaA with KEX2 cleavage signal, secreted from Pichia pastoris X-33; monomer
T4 sequence (Q18014 26-382 D244A): T1 sequence (Q18014 26-382) with D219A
The experiment in a line: isothermal titration calorimetry.
From the text: as §2

The target of assay [6] is T5, CePOFUT1 (Caenorhabditis elegans, UniProt Q18014, F199A).
T5 construct: gene pfut-1; codon-optimized synthetic gene in pPICZalphaA with KEX2 cleavage signal, secreted from Pichia pastoris X-33; monomer
T5 sequence (Q18014 26-382 F199A): T1 sequence (Q18014 26-382) with F174A
Briefly: isothermal titration calorimetry.
From the text: as §2

The target of assay [7] is T6, CePOFUT1 (Caenorhabditis elegans, UniProt Q18014, F261A).
T6 construct: gene pfut-1; codon-optimized synthetic gene in pPICZalphaA with KEX2 cleavage signal, secreted from Pichia pastoris X-33; monomer
T6 sequence (Q18014 26-382 F261A): T1 sequence (Q18014 26-382) with F236A
Briefly: isothermal titration calorimetry.
From the text: as §2

In assay [8] the target is T7, CePOFUT1 (Caenorhabditis elegans, UniProt Q18014, F357A).
T7 construct: gene pfut-1; codon-optimized synthetic gene in pPICZalphaA with KEX2 cleavage signal, secreted from Pichia pastoris X-33; monomer
T7 sequence (Q18014 26-382 F357A): T1 sequence (Q18014 26-382) with F332A
Briefly: isothermal titration calorimetry.
From the text: as §2

The target of assay [9] is T8, CePOFUT1 (Caenorhabditis elegans, UniProt Q18014, N43A).
T8 construct: gene pfut-1; codon-optimized synthetic gene in pPICZalphaA with KEX2 cleavage signal, secreted from Pichia pastoris X-33; monomer
T8 sequence (Q18014 26-382 N43A): T1 sequence (Q18014 26-382) with N18A
The experiment in a line: isothermal titration calorimetry.
From the text: as §2

Assay [10] deals with T9, CePOFUT1 (Caenorhabditis elegans, UniProt Q18014, R240K).
T9 construct: gene pfut-1; codon-optimized synthetic gene in pPICZalphaA with KEX2 cleavage signal, secreted from Pichia pastoris X-33; monomer
T9 sequence (Q18014 26-382 R240K): T1 sequence (Q18014 26-382) with R215K
Briefly: isothermal titration calorimetry.
From the text: as §2

For assay [11], the target named is T10, CePOFUT1 (Caenorhabditis elegans, UniProt Q18014, R40A).
T10 construct: gene pfut-1; codon-optimized synthetic gene in pPICZalphaA with KEX2 cleavage signal, secreted from Pichia pastoris X-33; monomer
T10 sequence (Q18014 26-382 R40A): T1 sequence (Q18014 26-382) with R15A
Briefly: isothermal titration calorimetry.
From the text: as §2

Assay [12] deals with T11, CePOFUT1 (Caenorhabditis elegans, UniProt Q18014, W245A).
T11 construct: gene pfut-1; codon-optimized synthetic gene in pPICZalphaA with KEX2 cleavage signal, secreted from Pichia pastoris X-33; monomer
T11 sequence (Q18014 26-382 W245A): T1 sequence (Q18014 26-382) with W220A
Briefly: isothermal titration calorimetry.
From the text: as §2

Positions count from the first letter of the chain named. Read-outs that look alike come from different tables or passages of the source.

Regarding `C[C@@H]1O[C@H](OP(=O)(O)OP(=O)(O)OC[C@H]2O[C@@H](n3cnc4c(=O)[nH]c(N)nc43)[C@H](O)[C@@H]2O)[C@@H](O)[C@H](O)[C@@H]1O` [GDP-fucose], the ΔTm at 1000 µM on CePOFUT1 [1] (read-out: ΔT m (°C)1 mM GDP-fucose) was 2.19 °C. The Kd at CePOFUT1 [2] came out at 0.23 ± 0.04 µM.

Consider `Nc1nc2c(ncn2[C@@H]2O[C@H](COP(=O)(O)OP(=O)(O)O)[C@@H](O)[C@H]2O)c(=O)[nH]1` [GDP], for which the ΔTm at 1000 µM at CePOFUT1 [1] (read-out: ΔT m (°C)1 mM GDP) worked out at 4.21 °C; on CePOFUT1 [3], 5.01 °C. The Kd on CePOFUT1 [4] is 90 ± 20 nM; on CePOFUT1 [5], 100 ± 10 nM; on CePOFUT1 [6], 180 ± 30 nM; on CePOFUT1 [7] it was 120 ± 70 nM; at CePOFUT1 [8], 26900 ± 5000 nM; at CePOFUT1 [9], 300 ± 90 nM. The Kd at CePOFUT1 [10] was 61200 ± 10500 nM; on CePOFUT1 [11], 3100 ± 530 nM; on CePOFUT1 [12] it was 1600 ± 400 nM.
